Values of other authors as cited in patent US11896701B2, “Method for dyeing keratin material, comprising the use of an organic C1-C6 alkoxy silane and tannic acid” (Henkel AG & Co. KGaA, priority 2019, dated 2024).
≈ marks a conversion by molar mass, not a printed value.

Conditions: 25° C.

O=S(=O)(O)c1ccc(N=Nc2c(O)ccc3ccccc23)cc1 [Acid Orange 7, 4-[(2-hydroxy-1-naphthyl)azo]benzenesulfonate]
solubility in water: more than 7 g/L

Nc1cc(S(=O)(=O)O)cc2cc(S(=O)(=O)O)c(N=Nc3ccccc3)c(O)c12 [Acid Red 33, 5-amino-4-hydroxy-3-(phenylazo)-naphthalene-2,7-disulphonate]
solubility in water: 2500 µg/mL (≈ 5.9 mM)

O=[N+]([O-])c1cc([N+](=O)[O-])c2ccc(S(=O)(=O)O)cc2c1O [Acid Yellow 9, 8-hydroxy-5,7-dinitro-2-naphthalenesulfonic acid]
solubility in water: above 40 g/L

O=C(O)C1=NN(c2ccc(S(=O)(=O)O)cc2)C(=O)C1N=Nc1ccc(S(=O)(=O)O)cc1 (stereo not shown) [Acid Yellow 23, 4,5-dihydro-5-oxo-1-(4-sulfophenyl)-4-((4-sulfophenyl)azo)-1H-pyrazole-3-carboxylic acid]
solubility in water (in words): readily soluble in water
